Laboratory results published in patent US20240277636A1, “COMBINATION COMPRISING AT LEAST ONE SEROTONIN REUPTAKE INHIBITOR AND AT LEAST ONE STIMULATOR OF POTASSIUM-CHLORIDE COTRANSPORTER TYPE 2 AND ITS MEDICAL USE” (Université de Bordeaux, priority 2021, published 2024).

Test system: neuropathic mice
Conditions: conditioned 1 h 30 after injection, post- versus pre-conditioning, result in words
Procedure: 14 days after mice are free to explore during 10 minutes, a 2-chamber arena separated by a narrow corridor. A camera placed above the device allows tracking of mice movements. […] 1 H 30 after injection of either fluoxetine alone or combination of fluoxetine and CLP290, mice are restricted to one chamber during 10 minutes. 2 days after mice are put again and free to explore the entire arena. […] As control experiment, the same procedure is performed in neuropathic mice with fluoxetine and CLP290 vehicle.

CNCCC(Oc1ccc(C(F)(F)F)cc1)c1ccccc1 (stereo not shown) [fluoxetine]
time spent in the conditioned chamber (CPP): not
